Laboratory results from the supplement of paper PMC10307832.

Assays:
Experiment in all cases: relative viability (nuclei count vs DMSO), 5 days (fraction); higher = more cells survive
UMC-11 = test system: UMC-11
Procedure, shortened: (§1)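 Lung cancer cell lines in 1536-well plates got either a single drug or a fixed anchor-drug dose together with five library-drug doses (not always all listed) in √10 steps, by pin tool, on the day after seeding. Nuclei were counted after 5 days, and relative viability is the treated-to-vehicle ratio of nuclei counts. Values are medians of duplicate plates.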

NCI-H2023 = test system: NCI-H2023
Procedure, shortened: as §1

EMC-BAC-2 = test system: EMC-BAC-2
Procedure, shortened: as §1

NCI-H650 = test system: NCI-H650
Procedure, shortened: as §1

NCI-H2405 = test system: NCI-H2405
Procedure, shortened: as §1

NCI-H1793 = test system: NCI-H1793
Procedure, shortened: as §1

NCI-H322M = test system: NCI-H322M
Procedure, shortened: as §1

NCI-H1395 = test system: NCI-H1395
Procedure, shortened: as §1

HCC-827 = test system: HCC-827
Procedure, shortened: as §1

LCLC-103H = test system: LCLC-103H
Procedure, shortened: as §1

NCI-H1944 = test system: NCI-H1944
Procedure, shortened: as §1

SK-MES-1 = test system: SK-MES-1
Procedure, shortened: as §1

H3255 = test system: H3255
Procedure, shortened: as §1

NCI-H520 = test system: NCI-H520
Procedure, shortened: as §1

LCLC-97TM1 = test system: LCLC-97TM1
Procedure, shortened: as §1

EPLC-272H = test system: EPLC-272H
Procedure, shortened: as §1

NCI-H1563 = test system: NCI-H1563
Procedure, shortened: as §1

NCI-H1651 = test system: NCI-H1651
Procedure, shortened: as §1

HCC-44 = test system: HCC-44
Procedure, shortened: as §1

NCI-H2087 = test system: NCI-H2087
Procedure, shortened: as §1

NCI-H2085 = test system: NCI-H2085
Procedure, shortened: as §1

NCI-H1355 = test system: NCI-H1355
Procedure, shortened: as §1

Structure (SMILES): Oc1nc(-c2ccc(C(F)(F)F)cc2)nc2c1CSCC2 [XAV939] + Cc1nc(NC(=O)N2CCC[C@H]2C(N)=O)sc1-c1ccnc(C(C)(C)C(F)(F)F)c1 [Alpelisib] (partner 2 µM)
- relative viability (UMC-11; first compound 0.08 µM): 1.2
- relative viability (UMC-11; first compound 0.8 µM): 0.971
- relative viability (UMC-11; first compound 2.53 µM): 0.64
- relative viability (NCI-H2023; first compound 0.08 µM): 0.572
- relative viability (NCI-H2023; first compound 0.253 µM): 0.524
- relative viability (NCI-H2023; first compound 0.8 µM): 0.525
- relative viability (NCI-H2023; first compound 2.53 µM): 0.412
- relative viability (EMC-BAC-2; first compound 0.08 µM): 0.859
- relative viability (EMC-BAC-2; first compound 0.253 µM): 0.69
- relative viability (EMC-BAC-2; first compound 0.8 µM): 0.621
- relative viability (EMC-BAC-2; first compound 2.53 µM): 0.367
- relative viability (NCI-H650; first compound 0.08 µM): 1.3
- relative viability (NCI-H650; first compound 0.253 µM): 0.959
- relative viability (NCI-H650; first compound 0.8 µM): 1.15
- relative viability (NCI-H650; first compound 2.53 µM): 0.864
- relative viability (NCI-H2405; first compound 0.08 µM): 0.922
- relative viability (NCI-H2405; first compound 0.253 µM): 0.804
- relative viability (NCI-H2405; first compound 0.8 µM): 0.732
- relative viability (NCI-H2405; first compound 2.53 µM): 0.635
- relative viability (NCI-H1793; first compound 0.08 µM): 0.589
- relative viability (NCI-H1793; first compound 0.253 µM): 0.59
- relative viability (NCI-H1793; first compound 0.8 µM): 0.697
- relative viability (NCI-H1793; first compound 2.53 µM): 0.708
- relative viability (NCI-H322M; first compound 0.08 µM): 0.844
- relative viability (NCI-H322M; first compound 0.253 µM): 0.656
- relative viability (NCI-H322M; first compound 0.8 µM): 0.741
- relative viability (NCI-H322M; first compound 2.53 µM): 0.718
- relative viability (NCI-H1395; first compound 0.08 µM): 1.09
- relative viability (NCI-H1395; first compound 0.253 µM): 1.03
- relative viability (NCI-H1395; first compound 0.8 µM): 1.08
- relative viability (NCI-H1395; first compound 2.53 µM): 1.06
- relative viability (HCC-827; first compound 0.08 µM): 1.04
- relative viability (HCC-827; first compound 0.253 µM): 0.934
- relative viability (HCC-827; first compound 0.8 µM): 0.967
- relative viability (HCC-827; first compound 2.53 µM): 0.969
- relative viability (LCLC-103H; first compound 0.08 µM): 0.941
- relative viability (LCLC-103H; first compound 0.253 µM): 0.766
- relative viability (LCLC-103H; first compound 0.8 µM): 0.852
- relative viability (LCLC-103H; first compound 2.53 µM): 0.873
- relative viability (NCI-H1944; first compound 0.08 µM): 0.939
- relative viability (NCI-H1944; first compound 0.253 µM): 0.765
- relative viability (NCI-H1944; first compound 0.8 µM): 0.751
- relative viability (NCI-H1944; first compound 2.53 µM): 0.786
- relative viability (SK-MES-1; first compound 0.08 µM): 0.994
- relative viability (SK-MES-1; first compound 0.253 µM): 0.912
- relative viability (SK-MES-1; first compound 0.8 µM): 0.911
- relative viability (SK-MES-1; first compound 2.53 µM): 0.757
- relative viability (H3255; first compound 0.08 µM): 0.965
- relative viability (H3255; first compound 0.253 µM): 0.709
- relative viability (H3255; first compound 0.8 µM): 0.414
- relative viability (H3255; first compound 2.53 µM): 0.522
- relative viability (NCI-H520; first compound 0.08 µM): 0.842
- relative viability (NCI-H520; first compound 0.253 µM): 0.755
- relative viability (NCI-H520; first compound 0.8 µM): 0.916
- relative viability (NCI-H520; first compound 2.53 µM): 0.648
- relative viability (LCLC-97TM1; first compound 0.08 µM): 0.256
- relative viability (LCLC-97TM1; first compound 0.253 µM): 0.232
- relative viability (LCLC-97TM1; first compound 0.8 µM): 0.252
- relative viability (LCLC-97TM1; first compound 2.53 µM): 0.243
- relative viability (EPLC-272H; first compound 0.08 µM): 0.958
- relative viability (EPLC-272H; first compound 0.253 µM): 0.863
- relative viability (EPLC-272H; first compound 0.8 µM): 0.908
- relative viability (EPLC-272H; first compound 2.53 µM): 0.889
- relative viability (NCI-H1563; first compound 0.08 µM): 0.937
- relative viability (NCI-H1563; first compound 0.253 µM): 0.864
- relative viability (NCI-H1563; first compound 0.8 µM): 0.804
- relative viability (NCI-H1563; first compound 2.53 µM): 0.708
- relative viability (NCI-H1651; first compound 0.08 µM): 0.979
- relative viability (NCI-H1651; first compound 0.253 µM): 0.841
- relative viability (NCI-H1651; first compound 0.8 µM): 0.978
- relative viability (NCI-H1651; first compound 2.53 µM): 0.891
- relative viability (HCC-44; first compound 0.08 µM): 0.953
- relative viability (HCC-44; first compound 0.253 µM): 0.675
- relative viability (HCC-44; first compound 0.8 µM): 0.775
- relative viability (HCC-44; first compound 2.53 µM): 0.737
- relative viability (NCI-H2087; first compound 0.08 µM): 1.24
- relative viability (NCI-H2087; first compound 0.253 µM): 0.914
- relative viability (NCI-H2087; first compound 0.8 µM): 1.09
- relative viability (NCI-H2087; first compound 2.53 µM): 0.889
- relative viability (NCI-H2085; first compound 0.08 µM): 0.993
- relative viability (NCI-H2085; first compound 0.253 µM): 0.898
- relative viability (NCI-H2085; first compound 0.8 µM): 0.814
- relative viability (NCI-H2085; first compound 2.53 µM): 0.737
- relative viability (NCI-H1355; first compound 0.08 µM): 0.78
- relative viability (NCI-H1355; first compound 0.253 µM): 0.654
- relative viability (NCI-H1355; first compound 0.8 µM): 0.75
- relative viability (NCI-H1355; first compound 2.53 µM): 0.489
